Results reported in patent US10724949B2, “Cuvette for detecting bacteria and determining their susceptibility to antibiotics” (BacterioScan LTD., priority 2005, dated 2020).

Tested on: E. coli
Assay: Light scattering (speckles image difference plots) test of bacterial susceptibility to an antibiotic agent in a filtered urine sample
Assay type: cell-based
Settings: gentamicin 1% in test cuvette
Text: Background signal originated by particles suspended in the sample of fluid that are larger than the bacteria are excluded by mechanically filtering according to the method of the present invention. However there are sources and light scatterers other than the bacteria that can contribute a stationary background signal. Such signals are typically originated by stationary particles present within the illuminated space, impurity of the light source, defects in, and or particles contaminating, the optical components. Therefore a difference plot is computed for excluding stationary background according to a preferred embodiment of the present invention. The intensity measured in every pixel of a speckles image is subtracted from the intensity measured in the same pixel of a preceding speckles image to form a difference plot. […]
For determining the susceptibility of bacteria to an antibiotic agent, an average value of at least two averaged derivatives computed first for a test cuvette, immediately following the introduction of an antibiotic agent, are compared to an average of the same number of averaged derivatives computed for speckles images received a few minutes later, preferably after more than 5 minutes. The antibiotic agent for which the difference between these averaged derivatives is the larger is determined. […]

With gentamicin the “concentration of non-stationary scatterers (difference plots of speckles images)” value (urine containing E. coli 10^5 CFU/ml, difference plot 30 minutes later vs immediately following introduction (FIG. 9B, 9C)) was “significant reduction” and the “values of the averaged derivative of the concentration of scatterers in time (normalised by their maximal value)” value (urine containing E. coli, a few minutes after the introduction of the antibiotics (FIG. 9D)) was “significant reduction (of a few tens of percents)”.
